Where a name gives a salt, the structure may show the parent alone.

This data set is described as follows: Test Example 3: Determination of oil/water partition coefficient (n-octanol / Sorensen buffer pH 7.0, HPLC). The format is physicochemical. The settings on record: dihydrochloride. On the procedure:
A 10-ml portion, of a solution prepared by dissolving the dihydrochloride of Compound No. 1 in Sorensen buffer solution (pH 7.0) to a concentration of 100 μg/ml is placed in a 50-ml centrifuagl tube, followed by addition of 10 ml of n-octanol. After shaking at 25° C. for 10 minutes, the mixture is centrifuged and the concentration of the cephalosporin compound in the aqueous layer is determined by high performance liquid chromatography [column: μ-Bondapak C-18 produced by Waters Associates, Canada; eluent: 0.05 M ammonium sulfate solution+acetonitrile+acetic acid (400:200:1 v/v)]. A value of 0.45 μg/ml is obtained. From this value, the oil/water partition coefficient is calculated as follows: [formula]

For `CC(OC(=O)OC1CCCCC1)OC(=O)C1=C(CSc2nnnn2CCN(C)C)CS[C@@H]2[C@H](NC(=O)Cc3csc(N)n3)C(=O)N12` (stereo partly drawn) [Compound No. 1, 1-(cyclohexyloxycarbonyloxy)ethyl 7β-[2-(2-aminothiazol-4-yl)acetamido]-3-[[[1-(2-dimethylaminoethyl-1H-tetrazol-5-yl]thio]methyl]ceph-3-em-4-carboxylatedihydrochloride], the “concentration of the cephalosporin compound in the aqueous layer” value (initial 100 μg/ml in Sorensen buffer pH 7.0, equal volume n-octanol, 25° C., 10 minutes shaking) came out at 450 ng/mL. Moreover, the logD (n-octanol/Sorensen buffer pH 7.0, 25° C., calculated from aqueous concentration) is 2.34.

Broadly, the logD is the decadic logarithm of the distribution of all forms, ionised or not, between an organic phase and buffer at a given pH.
